Results from patent publication US9090617B1, “Agonists of Src homology-2 containing protein tyrosine phosphatase-1 and treatment methods using the same” (National Taiwan University, priority 2011, dated 2015).
“Also recorded” adds a separate entry of the source.

Experiments:
PLC5 cells = assay: MTT assay for cell growth inhibition in PLC5 cells; assay type: cell-based
Method: These compounds were analyzed by MTT assay for cell growth inhibition in the PLC5 cells.
Next, we changed the pyridine to a quinoline ring and amide linker to generate compounds 12-25. These compounds were also analyzed by MTT assay for cell growth inhibition in the PLC5 cells.

Raf-1 = biological target: T1, Raf-1 (Homo sapiens, UniProt P04049); assay: Raf-1 kinase activity in lysates of treated cells; assay type: cell-based
T1 construct: Raf-1 immunoprecipitated from PLC5 cell extracts was incubated with MEK recombinant protein; endogenous in cells; host or cells: PLC5
T1 sequence (P04049 whole entry): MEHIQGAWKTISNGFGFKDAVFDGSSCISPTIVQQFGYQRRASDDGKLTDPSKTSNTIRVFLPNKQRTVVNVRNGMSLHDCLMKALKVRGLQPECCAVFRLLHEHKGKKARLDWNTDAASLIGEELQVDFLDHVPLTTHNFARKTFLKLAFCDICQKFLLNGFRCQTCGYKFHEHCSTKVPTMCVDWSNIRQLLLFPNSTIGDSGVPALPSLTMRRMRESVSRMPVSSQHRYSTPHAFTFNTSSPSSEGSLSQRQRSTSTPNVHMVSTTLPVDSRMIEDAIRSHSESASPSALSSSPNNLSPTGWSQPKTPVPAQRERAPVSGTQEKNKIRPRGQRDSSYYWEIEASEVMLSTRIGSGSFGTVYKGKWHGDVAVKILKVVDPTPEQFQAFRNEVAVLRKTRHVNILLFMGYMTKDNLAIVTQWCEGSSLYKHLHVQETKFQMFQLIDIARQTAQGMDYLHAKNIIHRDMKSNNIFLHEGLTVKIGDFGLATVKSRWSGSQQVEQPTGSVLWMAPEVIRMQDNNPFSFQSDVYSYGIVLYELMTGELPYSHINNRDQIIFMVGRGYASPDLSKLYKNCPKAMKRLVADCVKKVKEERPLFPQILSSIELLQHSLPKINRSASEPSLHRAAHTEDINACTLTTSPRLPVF
Description: (§1) The RediPlate 96 EnzChek® Tyrosine Phosphatase Assay Kit (R-22067) was used for SHP-1 activity assay (Molecular Probes, Carlsbad, Calif.). The Raf-1 kinase cascade assay kit (Upstate-Millipore, Billerica, Mass.) was used to examine the Raf-1 kinase activity. The JAK2 kinase activity kit was purchased from Reaction Biology Corp. (Malvern, Pa.).

phospho-STAT3 (Tyr705) = assay: Phospho-STAT3 (Tyr705) sandwich ELISA; assay type: cell-based
Method: A PathScan Phospho-Stat3 (Tyr705) Sandwich ELISA Kit was used for the detection of phospho-STAT3 (Cell Signaling, Danvers, Mass.). Cells were pre-treated with IL-6 1 ng/ml and then exposed with various compounds at 10 μM for 24 h. After incubation with cell lysates, both non-phospho- and phospho-Stat3 proteins are captured by the coated antibody. The expression of phospho-STAT3 was measured at 450 nm absorbance.
The decreased level of P-STAT3 induced by these derivatives was correlated with cell toxicity. In the other words, these derivatives induced cell death in part through inhibition of STAT3.
We also assayed the activation status of p-STAT3 by STAT3 ELISA. […] SC-1 or sorafenib-treated cell extracts were incubated with antibody against phosphorylated STAT3 at Y705. […] To evaluate the transcriptional activity, STAT3-binding region was cloned into Luc reporter. […] The firefly luciferase activity was evaluated and normalized by Renilla luciferase.
p-STAT3 activity: PLC5 cells treated with SC derivatives were collected in RIPA buffer and analyzed in p-STAT3 ELISA kit. The assay protocol follows the manufacturer.

[1] = system: p-STAT3, cyclin D1, survivin, Mc1-1; assay: Western blot of STAT3-related proteins in HCC cells; assay type: cell-based; details: HCC cells, 24 h
Method: Cells were treated with various compounds at 5 and 10 μM for 24 h. Cell lysates were analyzed by western blot.
HCC cells treated with SC-43 (10 μM for 24 h) were collected with RIPA lysis buffer. Antibodies for immunoblotting such as cyclin D1 was purchased from Santa Cruz Biotechnology. Other antibodies such as survivin, phospho-STAT3 (Tyr705), STAT3, Mc1-1, SOCS1, and SOCS3 were from Cell Signaling.

JAK2 = biological target: T2, JAK2 (Homo sapiens, UniProt O60674); assay: JAK2 kinase activity; assay type: cell-based; details: PLC5 cells, 10 μM, 24 h
T2 construct: endogenous in cells; host or cells: PLC5
T2 sequence (O60674 whole entry): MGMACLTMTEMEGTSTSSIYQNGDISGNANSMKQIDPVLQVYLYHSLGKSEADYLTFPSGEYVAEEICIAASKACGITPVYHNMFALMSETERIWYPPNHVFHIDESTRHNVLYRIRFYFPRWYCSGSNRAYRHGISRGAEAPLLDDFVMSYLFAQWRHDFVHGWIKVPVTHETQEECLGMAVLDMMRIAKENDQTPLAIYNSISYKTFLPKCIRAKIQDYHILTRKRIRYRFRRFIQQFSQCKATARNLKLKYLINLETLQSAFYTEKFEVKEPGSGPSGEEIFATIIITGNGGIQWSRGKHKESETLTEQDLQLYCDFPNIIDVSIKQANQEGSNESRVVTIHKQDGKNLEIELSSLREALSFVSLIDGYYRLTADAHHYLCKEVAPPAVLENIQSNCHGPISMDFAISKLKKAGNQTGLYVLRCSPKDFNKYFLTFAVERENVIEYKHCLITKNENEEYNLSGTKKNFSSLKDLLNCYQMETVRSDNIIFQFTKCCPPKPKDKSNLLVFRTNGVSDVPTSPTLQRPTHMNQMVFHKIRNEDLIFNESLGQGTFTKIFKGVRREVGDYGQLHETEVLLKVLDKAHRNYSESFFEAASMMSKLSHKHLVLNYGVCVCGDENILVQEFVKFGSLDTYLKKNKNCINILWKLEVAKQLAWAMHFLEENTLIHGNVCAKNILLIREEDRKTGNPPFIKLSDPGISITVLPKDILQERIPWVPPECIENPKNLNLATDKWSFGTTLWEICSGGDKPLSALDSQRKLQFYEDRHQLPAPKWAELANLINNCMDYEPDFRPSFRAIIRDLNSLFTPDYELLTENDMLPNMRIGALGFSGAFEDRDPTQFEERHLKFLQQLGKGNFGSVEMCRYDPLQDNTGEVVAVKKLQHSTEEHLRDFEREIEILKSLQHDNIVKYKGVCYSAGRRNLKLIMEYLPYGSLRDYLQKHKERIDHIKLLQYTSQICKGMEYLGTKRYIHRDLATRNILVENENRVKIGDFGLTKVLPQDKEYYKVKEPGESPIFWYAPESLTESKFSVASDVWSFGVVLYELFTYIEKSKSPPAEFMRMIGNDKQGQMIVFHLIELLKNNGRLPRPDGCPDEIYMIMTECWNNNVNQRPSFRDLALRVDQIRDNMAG
Description: as §1

Huh-7 tumors = system: Huh-7 tumors
Method: Male NCr athymic nude mice (5-7 weeks of age) were obtained from the National Laboratory Animal Center (Taipei, Taiwan). All experimental procedures using these mice were performed in accordance with protocols approved by National Taiwan University. […] Controls received vehicle (Chen K F et al. Cancer Res. 2008; 68:6698-6707).

HCC cells [2] = assay: cells
Description: Points, mean; bars, SD (n=6).
Points, mean; bars, SD ([…]). […] The N-SH2 domain is in orange, the C-SH2 domain is in marine, the PTP domain is in hot pink, and the linkers between them are in gray. […] ELISA, enzyme-linked immunosorbent assay.

HCC cells [3] = assay: Apoptosis analysis by flow cytometry (sub-G1); assay type: cell-based; details: HCC cells, 24 h
Method: Apoptotic cells were measured by flow cytometry (sub-G1). After treatment with various compounds, cells were trypsinized, collected by centrifugation and resuspended in PBS. After centrifugation, the cells were washed in PBS and resuspended in […] (PI) staining solution. Specimens were incubated in the dark for 30 min at 37° C. and then analyzed with an EPICS Profile II flow cytometer (Coulter Corp., Hialeah, Fla.). All experiments were performed in triplicate
Collected cells were fixed in 75% Ethanol and stained with 20 ug/ml Propidium Iodide (PI). Sub-G1 analysis was performed by flow-cytometry. […] Points, mean; bars, SD (n=6).

STAT3 = STAT3 luciferase reporter assay; assay type: cell-based; details: 10 μM, 24 h
Method: Cells were seeded in 96-well plate and pre-treated with IL-6 at the dose […] for 30 min. The STAT3 reporter kit was purchased from SABiosciences (Frederick, Md.).
STAT3 reporter assay: PLC5 cells were seeded in a 96-well plate. Cells were pretransfected with STAT3 reporter construct for 24 h and treated with derivatives for another 24 h. The STAT3 Reporter Kit was purchased from SABiosciences.

[4] = system: MDAMB231, MDAMB468, MCF-7, HL-60, KG-1 and ML-1; assay: Anti-proliferation in breast cancer and leukemia cell lines; assay type: cell-based; details: MDAMB231, MDAMB468, MCF-7, HL-60, KG-1, ML-1
Method: The Huh-7 HCC cell line was obtained from the Health Science Research Resources Bank (Osaka, Japan; JCRB0403). The PLC/PRF/5 (PLC5), Sk-Hep-1, and Hep3B cell lines were obtained from American Type Culture Collection (Manassas, Va.). The cells were maintained in DMEM supplemented with 10% FBS, 100 units/mL penicillin G, 100 μg/mL streptomycin sulfate and 25 μg/mL amphotericin B in a 37° C. humidified incubator in an atmosphere of 5% CO2 in air. Other cell lines, including breast cancer cells e.g. MDAMB231, MDAMB468, MCF-7, and leukemia cancer cells e.g. HL-60, KG-1 and ML-1 are also provided for the assays described below.
We also examed the effects of SC-1 and SC-43 in other cancer cell lines, including breast cancer cell lines e.g. MDAMB231, MDAMB468, MCF-7, and leukemia cancer cell lines e.g. HL-60, KG-1 and ML-1.

SHP-1 = SHP-1 (Homo sapiens, UniProt P29350); assay: Phosphatase activity of SHP-1 immunoprecipitated from PLC5 cells, incubated with compound in vitro; assay type: biochemical; set-up: PLC5 protein extract was incubated with anti-SHP-1 antibody in immunoprecipitation buffer overnight; endogenous in cells; host or cells: PLC5 (PLC/PRF/5); details: PLC5 lysates, incubated 6 hours
Chain of SHP-1 (P29350 whole entry): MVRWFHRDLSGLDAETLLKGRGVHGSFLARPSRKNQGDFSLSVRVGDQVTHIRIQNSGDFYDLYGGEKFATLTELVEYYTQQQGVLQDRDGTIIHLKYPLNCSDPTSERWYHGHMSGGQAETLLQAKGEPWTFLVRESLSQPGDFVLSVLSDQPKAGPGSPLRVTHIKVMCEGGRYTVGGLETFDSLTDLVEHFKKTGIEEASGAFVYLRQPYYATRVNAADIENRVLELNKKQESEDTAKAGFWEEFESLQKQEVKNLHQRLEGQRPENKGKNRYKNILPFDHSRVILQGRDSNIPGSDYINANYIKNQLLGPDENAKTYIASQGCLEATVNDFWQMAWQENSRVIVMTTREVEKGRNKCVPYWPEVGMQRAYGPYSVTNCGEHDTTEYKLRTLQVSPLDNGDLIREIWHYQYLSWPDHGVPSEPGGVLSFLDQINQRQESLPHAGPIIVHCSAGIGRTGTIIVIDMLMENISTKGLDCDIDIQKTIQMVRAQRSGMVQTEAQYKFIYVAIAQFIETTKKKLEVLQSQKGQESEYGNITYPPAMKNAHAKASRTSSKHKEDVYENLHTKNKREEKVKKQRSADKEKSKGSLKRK
Method: PLC5 protein extract was incubated with anti-SHP-1 antibody in immunoprecipitation buffer overnight. Protein G Sepharose 4 Fast flow (GE Healthcare Bio-Science) was added to each sample, followed by incubation for 3 hours at 4° C. with rotation. […] RediPlate 96 EnzChek Tyrosine Phosphatase Assay kit (R-22067) was used for SHP-1 activity assay (Molecular Probes).

## N#Cc1ccc(Oc2ccc(NC(=O)Nc3ccc(Cl)c(C(F)(F)F)c3)cc2)cc1 [Compound 1, 1-(4-Chloro-3-(trifluoromethyl)phenyl)-3-(4-(4-cyanophenoxyl)phenyl)urea]
PLC5 cells
  IC50: 7.5 µM
Raf-1; PLC5 cells (FIG. 3)
  Raf-1 activity versus vehicle control: showed the same Raf-1 activity as vehicle control
Raf-1; Raf-1 immunoprecipitated from PLC5 or Hep3B cell extracts, 10 μM, 24 h
  inhibition of Raf-1 activity: did not inhibit the activity of Raf-1
phospho-STAT3 (Tyr705); PLC5 cells, IL-6 stimulated, 10 uM, 24 h
  P-STAT3 state by ELISA: showed a high degree of dephosphorylation of STAT3; also recorded: exhibited the same level of downregulation of P-STAT3 as sorafenib did
phospho-STAT3 (Tyr705); Sk-Hep1 cells pre-treated with IL-6, 24 h
  activity of p-STAT3 by STAT3 ELISA: decreased the activity of p-STAT3 significantly
[1]
  p-STAT3 and STAT3-related proteins (Western blot): down-regulated p-STAT3 at Y705 residue and suppressed Mc1-1 and cyclin D1
JAK2
  kinase activity of JAK2: neither sorafenib nor SC-1 altered the kinase activity of JAK2
Huh-7 tumors; Huh-7 xenograft, 10 mg/kg p.o. once daily
  tumor size relative to vehicle-treated mice at the end of treatment: 25%
Huh-7 tumors; tumor extract
  SHP-1 activity in Huh-7 tumors: induced significant rising of SHP-1 activity
Huh-7 tumors; tumor extract, Western blot
  p-STAT3 in Huh-7 tumors: down regulated p-STAT3
HCC cells [2]
  viability of HCC cells / cytotoxicity: decreased the viability of various HCC cells
HCC cells [3]
  apoptosis (sub-G1): showed a significant increase in sub-G1 phase population
STAT3
  transcription activity of STAT3 (Luc reporter): transcription activity of STAT3 was significantly decreased
[4]
  growth of breast cancer and leukemia cell lines: effective in inhibiting the growth of cancer cells
p-VEGFR2 (Tyr1175)
  expression of p-VEGFR2 (Tyr1175): did not have significant effect
SHP-1
  activity of SHP-1 in SHP-1 immunoprecipitates incubated with drug: increase the activity of SHP-1
